Reference: patent publication EP1611112B1, “ISOXAZOLE COMPOUNDS AS INHIBITORS OF HEAT SHOCK PROTEINS” (Vernalis (Cambridge) Limited, priority 2003, dated 2004)

How the values were obtained:
[1] = biological target: T1, yeast HSP90 (Saccharomyces cerevisiae, UniProt P02829); test: Malachite Green ATPase assay; format: biochemical; conditions: activity range
T1 construct: made in house; host or cells: E. coli
From the text: The intrinsic ATPase activity of HSP90 may be measured using yeast HSP90 as a model system. The assay, based on the use of malachite green for the measurement of inorganic phosphate, was used to test the HSP90 inhibitory activity of some of the compounds of the Examples herein.
Malachite Green ATPase Assay
Chemicals are of the highest purity commercially available and all aqueous solutions are made up in AR water. Because of the need to minimise contamination with inorganic phosphate, precautions should be taken with solutions and apparatus used in the assays. Glassware and pH meters are rinsed with double distilled or deionised water before use and, wherever possible, plastic ware should be used. Gloves are worn for all procedures. • (1) Greiner 384-well (Greiner 781101) or Costar 384-well flat-bottomed polystyrene multiwell plates (VWR). • (2) Assay buffer of (a) 100mM Tris-HCI, pH 7.4, (b) 150mM KCI, (c) 6mM MgCl2. Stored at room temperature. • (3) 0.0812% (w/v) malachite green (M 9636, Sigma Aldrich Ltd., Poole, UK). Stored at room temperature. • (4) 2.32% (w/v) polyvinyl alcohol USP (P 1097, Sigma Aldrich Ltd, Poole, UK) in boiling water (see Comment 1), allowed to cool, and stored at room temperature. • (5) 5.72% (w/v) ammonium molybdate in 6 M hydrochloric acid. Stored at room temperature. • (6) 34% (w/v) sodium citrate. Stored at room temperature. • (7) 100mM ATP, disodium salt, special quality (47699, Sigma Aldrich). Stored at -20°C. • (8) E. coli expressed yeast HSP90 protein, purified >95% (see, e.g., Panaretou et al., 1998) and stored in 50uL aliquots at -80°C.
• 1. Dilute test compounds to 500µM in AR water (DMSO concentration will be 2.5%). Transfer 2.5µl of these compounds directly from the daughter plate to the assay plate, giving a final assay concentration of 100µM. […] Column 1 in the assay plate contains no compound, as a negative control. An additional row with no compound is also used as a background. • 2. Prepare ATP by diluting 100mM stock to 925µM with assay buffer, and aliquot 5µl of diluted ATP to each well including controls (final assay concentration 370µM). • 3. Add 5µl of buffer to background row. • 4. Dilute enzyme preparation to 1.05µM with assay buffer, and aliquot 5µl into each compound well and to the negative control column. • 5. Collect the reagents to the bottom of the well, cover plate with plate seal and incubate overnight at 37degC. • 6. First thing in the morning prepare the Malachite Green Reagent. Add 2parts of Malachite Green Solution, 1 part of Polyvinyl Alcohol Solution, 1 part of Ammonium Molybdate Solution, and 2 parts of AR water. • 7. Invert to mix, and leave for approximately 1 hour until the colour turns from brown to golden yellow. • 8. Add 40µl of Malachite Green Reagent to each well, allow 5 mins for colour to develop. • 9. Add 5µl of Sodium Citrate Reagent to each well (see comment 2) • 10. Re-cover with plate seal and shake on plate shaker for at least 15 mins. • 11. Measure Absorbance at 620nm using a suitable plate reader (e.g. Victor, Perkin Elmer Life Sciences, Milton Keynes, UK). Under these conditions, the control absorbance is 0.9 to 1.4, and the background is 0.2-0.35 giving a signal to noise ratio of -12. The Z' factor calculated from data obtained using these conditions is between 0.6 and 0.9.
• (1) The polyvinyl alcohol dissolves in boiling water with difficulty and stirring for 2-3 h is required. • (2) The time interval between addition of the malachite green reagent and the sodium citrate should be kept as short as possible in order to reduce the non-enzymatic hydrolysis of ATP. Once the sodium citrate is added, the colour is stable for up to 4 h at room temperature. • (3) Compounds can be added to the assay plates using a Biomek FX Robot (Beckman Coulter). […]

[2] = biological target: T2, human full-length HSP90 (Homo sapiens, UniProt P08238); test: Fluorescence Polarisation Assay (displacement of fluorescein-labelled probe RBT0045864-FAM); format: binding; conditions: Fluorescence Polarisation Assay, activity range
T2 construct: E. coli expressed human full-length HSP90 protein; made in house; host or cells: E. coli
T2 sequence (P08238 whole entry): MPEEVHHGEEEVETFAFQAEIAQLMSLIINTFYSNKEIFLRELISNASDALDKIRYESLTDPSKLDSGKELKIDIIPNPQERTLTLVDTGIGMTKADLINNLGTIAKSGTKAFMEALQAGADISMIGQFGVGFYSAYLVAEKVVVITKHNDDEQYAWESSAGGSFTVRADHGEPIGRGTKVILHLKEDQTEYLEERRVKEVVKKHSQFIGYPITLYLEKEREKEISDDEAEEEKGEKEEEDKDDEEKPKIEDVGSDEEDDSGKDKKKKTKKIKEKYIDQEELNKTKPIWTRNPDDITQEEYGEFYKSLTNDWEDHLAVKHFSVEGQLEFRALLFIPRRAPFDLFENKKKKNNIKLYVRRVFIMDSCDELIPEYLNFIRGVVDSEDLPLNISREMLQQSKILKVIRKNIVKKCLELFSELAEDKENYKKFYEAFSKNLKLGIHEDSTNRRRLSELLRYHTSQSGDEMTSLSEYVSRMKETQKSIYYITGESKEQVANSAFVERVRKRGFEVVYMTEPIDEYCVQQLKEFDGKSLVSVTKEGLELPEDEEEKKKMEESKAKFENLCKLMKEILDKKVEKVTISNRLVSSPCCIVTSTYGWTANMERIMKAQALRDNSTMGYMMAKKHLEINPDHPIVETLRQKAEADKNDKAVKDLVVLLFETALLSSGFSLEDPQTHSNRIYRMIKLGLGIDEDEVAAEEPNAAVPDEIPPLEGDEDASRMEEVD
From the text: A Fluorescence Polarization_assay was also employed for the evaluation of some of the compounds of the Examples:
Fluorescence polarization {also known as fluorescence anisotropy} measures the rotation of a fluorescing species in solution, where the larger molecule the more polarized the fluorescence emission.
When the fluorophore is excited with polarized light, the emitted light is also polarized. The molecular size is proportional to the polarization of the fluorescence emission.
Test compound is added to the assay plate, left to equilibrate and the anisotropy measured again. Any change in anisotropy is due to competitive binding of compound to HSP90, thereby releasing probe.
Stored at room temperature. • 3) BSA (bovine serum albumen) 10 mg/ml (New England Biolabs # B9001S) • 4) 20 mM probe in 100 % DMSO stock concentration. Stored in the dark at RT. Working concentration is 200 nM diluted in AR water and stored at 4 °C.
1) Add 100µl 1x buffer to wells 11A and 12A (=FP BLNK) 2) Prepare assay mix - all reagents are kept on ice with a lid on the bucket as the probe is light-sensitive.
This gives 2.5 mM {50x} stock cpd - assuming cpds 20 mM. • 4) Repeat for wells A2 to A10. Control in columns 11 and 12. • 5) Transfer 5 µl from row A to row B- not column 12. Mix well. • 6) Transfer 5 µl from row B to row C. […] Add 2 µl of 100mM standard cpd to wells B12 - H12 {is positive control } • 13)The Z' factor is calculated from zero controls and positive wells.

[3] = Sulforhodamine B (SRB) growth inhibition / growth arrest assay; format: cell-based; conditions: cell line not named
Protocol: A growth inhibition assay was also employed for the evaluation of candidate HSP90 inhibitors: • Assessment of cytotoxicity by Sulforhodamine B (SRB) assay: calculation of 50% inhibitory concentration (IC50).
• 1) Determine cell number by haemocytometer. • 2) Using an 8 channel multipipettor, add 160µl of the cell suspension (3600 cells/well or 2 x 10^4 cells/ml) to each well of a 96-well microtitre plate. • 3) Incubate overnight at 37°C in a CO2 incubator. […]
• 8) Tip off medium into sink and immerse plate slowly into 10% ice cold trichloroacetic acid (TCA). […] Leave for 15 mins. • 12)Wash off unbound SRB stain with four washes of 1% acetic acid. • 13)Dry plates in incubator. • 14)Solubilise SRB using 100µl of 10mM Tris base and put plates on plate shaker for 5 mins. • 15)Determine absorbance at 540nm using a plate reader. Calculate mean absorbance for quadruplicate wells and express as a percentage of value for control, untreated wells. • 16)Plot % absorbance values versus log drug concentration and determine the IC50. […]

T1 sequence (P02829 whole entry): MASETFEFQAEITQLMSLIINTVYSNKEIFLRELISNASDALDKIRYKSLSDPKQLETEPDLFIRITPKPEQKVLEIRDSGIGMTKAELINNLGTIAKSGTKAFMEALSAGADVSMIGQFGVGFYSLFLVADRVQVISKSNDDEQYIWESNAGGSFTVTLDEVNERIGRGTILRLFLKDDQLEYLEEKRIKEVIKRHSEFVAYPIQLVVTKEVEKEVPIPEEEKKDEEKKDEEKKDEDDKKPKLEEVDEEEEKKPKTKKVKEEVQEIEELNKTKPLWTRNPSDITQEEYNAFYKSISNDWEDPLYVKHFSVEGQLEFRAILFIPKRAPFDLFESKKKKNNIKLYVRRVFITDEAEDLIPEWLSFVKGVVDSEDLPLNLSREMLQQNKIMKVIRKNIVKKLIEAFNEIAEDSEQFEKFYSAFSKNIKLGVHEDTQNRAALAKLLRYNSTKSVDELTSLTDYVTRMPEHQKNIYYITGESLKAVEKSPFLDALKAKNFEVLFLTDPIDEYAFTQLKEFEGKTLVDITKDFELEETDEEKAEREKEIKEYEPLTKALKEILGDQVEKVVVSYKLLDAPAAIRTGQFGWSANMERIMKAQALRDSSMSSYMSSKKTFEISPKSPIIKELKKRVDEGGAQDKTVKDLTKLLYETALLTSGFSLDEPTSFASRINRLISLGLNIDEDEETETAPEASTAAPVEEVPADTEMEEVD

SMILES | IC50 [1] | IC50 [2] | IC50 [3]
Cc1noc(-c2ccc(O)cc2O)c1-c1ccc(F)cc1 [Example 9] | < 50 µM | – | –
COc1ccc(-c2c(C)noc2-c2cc(C(OC)c3ccccc3)c(O)cc2O)cc1 (stereo not drawn) [Example 20] | < 50 µM | – | –
COc1ccc(-c2c(C)noc2-c2cc(C(=O)Nc3ccccc3OC)c(O)cc2O)cc1 [Example 19] | < 50 µM | – | –
CCCCCc1noc(-c2ccc(O)cc2O)c1-c1ccc(OC)cc1 [Example 21] | < 50 µM | – | –
COc1ccc(-c2cnoc2-c2cc(Cl)c(O)cc2O)cc1OC [Example 8] | > 50 µM | – | –
Cc1noc(-c2cc(Cl)c(O)cc2O)c1-c1ccccc1 [Example 10] | < 50 µM | – | –
COc1ccc(-c2c(C)noc2-c2cc(Br)c(O)cc2O)cc1 [Example 2, 4-Bromo-6-[4-(4-methoxy-phenyl)-3-methyl-isoxazol-5-yl]-benzene-1,3-diol] | – | < 10 µM | < 50 µM
Oc1ccc(Cl)cc1-c1oncc1-c1ccc2c(c1)OCCO2 [Example 6] | > 50 µM | – | –
Oc1ccccc1-c1oncc1-c1ccc2c(c1)OCCO2 [Example 7] | > 50 µM | – | –
Cc1cc(O)cc(O)c1-c1oncc1-c1csc(-c2ccccc2)n1 [Example 12c] | < 50 µM | – | –
Cc1cc(O)cc(O)c1-c1onc(C(F)(F)F)c1-c1cscn1 [Example 12d] | < 50 µM | – | –
